Experimental data from patent US20250320252A1 (The Scripps Research Institute, priority 2021, published 2025).
Read-outs that look alike come from different tables or passages of the source.

How the values were obtained:
[1] = in vitro; assay type: in vitro ADME; settings: dog, human, plasma
Procedure: (§1) To investigate the stability of the conjugates in mouse, cyno monkey, dog, and human plasma, conjugate mCMD307 was incubated in plasma for 24 h (Table 13). At certain time intervals a sample of plasma was taken and plasma proteins precipitated. Samples were analyzed using LC-MS.

[2] = Plasma stability, 24 h, LC-MS, mouse plasma; assay type: in vitro ADME
Procedure: as §1

[3] = assay type: in vitro ADME, cynomolgus monkey
Procedure: as §1

remaining at 24 h [1]: 92% | Area under the peak (%) [2]: 53% | Area under the peak (%) [3]: 87%
SMILES: CC[C@H](C)[C@H](NC(=O)[C@H](CO)NC(=O)[C@H](Cc1ccc(O)cc1)NC(=O)[C@H](CC(=O)O)NC(=O)[C@H](CO)NC(=O)[C@@H](NC(=O)[C@H](Cc1ccccc1)NC(=O)[C@@H](NC(=O)CNC(=O)[C@H](CCC(=O)O)NC(=O)C(C)(C)NC(=O)[C@@H](N)Cc1ccc(O)cc1)[C@@H](C)O)[C@@H](C)O)C(=O)N[C@@H](Cc1ccc(O)cc1)C(=O)N[C@H]1CCCCNC(=O)CN(C(=O)CCNC(=O)CCOCCOCCOCCNC(=O)CCCCCCCCCCCCCCCCC(=O)O)CC(=O)NCCCC[C@@H](C(=O)N[C@@H](Cc2ccccc2)C(=O)N[C@H](C(=O)N[C@@H](CC(N)=O)C(=O)N[C@@H](Cc2c[nH]c3ccccc23)C(=O)N[C@@H](CC(C)C)C(=O)N[C@@H](CC(C)C)C(=O)N[C@@H](C)C(=O)NCC(=O)NCC(=O)N2CCC[C@H]2C(=O)N[C@@H](CO)C(=O)N[C@@H](CO)C(=O)NCC(=O)N[C@@H](C)C(=O)N2CCC[C@H]2C(=O)N2CCC[C@H]2C(=O)N2CCC[C@H]2C(=O)N[C@@H](CO)C(N)=O)C(C)C)NC(=O)C(C)(C)NC(=O)[C@H](C)NC(=O)[C@H](C)NC(=O)[C@H](CCC(N)=O)NC(=O)[C@H](CCCCN)NC(=O)[C@H](CC(=O)O)NC1=O [mCMD307, YAibEGT-FTSDY-SIYXD-KQAAAib-XFVNW-LLAGG-PSSGA-PPPS-NH2 (where each X is K)]
